For assay [1], the system named is EBC-1 lung cancer cell line. The experiment in a line: EBC-1 cell proliferation, CellTiter-Glo assay. Type of assay: cell-based. Conditions: Homo sapiens, 120 h; Ebc-1 cell viability, CTG assay, 5 days of treatment; read-out: CTG 5 day Ebc1 GI50. In outline:
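CellTiter-Glo read-out after 5-day compound treatment, normalised to untreated cells, with GI50 derived by four-parameter logistic regression. Ten concentrations spanning 0.508 nM–10 μM were added to 1000 EBC-1 cells per well the day after seeding. Assays required at least one cell doubling versus Day 0.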
Background: ATP-based viability assays read luminescence as a measure of living cells.

In the next assay the target is T1, HiBiT-tagged BCL-xL (Homo sapiens, UniProt Q07817).
T1 construct: expressed in transfected cells; host or cells: NCI-H1650 (ATCC No. CRL-5883), engineered HiBiT cell line
The experiment in a line: NCI-H1650 BCL-xL protein levels, Nano-Glo HiBiT Lytic Detection. Conditions: NCI-H1650 expressing HiBiT-tagged BCL-xL, overnight incubation, read-out: Bcl-xl HIBIT NCIH1650 DC50. The class given is cell-based. The gist of the method: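 HiBiT luminescence after cell lysis with LgBiT/furimazine reagent reported BCL-xL levels, expressed relative to untreated wells and fitted with a four-parameter logistic equation. Engineered NCI-H1650 cells were exposed overnight at 37° C to compound at final 0.508 nM-10 μM (10 points, triplicate plates).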

T1 sequence (Q07817 whole entry): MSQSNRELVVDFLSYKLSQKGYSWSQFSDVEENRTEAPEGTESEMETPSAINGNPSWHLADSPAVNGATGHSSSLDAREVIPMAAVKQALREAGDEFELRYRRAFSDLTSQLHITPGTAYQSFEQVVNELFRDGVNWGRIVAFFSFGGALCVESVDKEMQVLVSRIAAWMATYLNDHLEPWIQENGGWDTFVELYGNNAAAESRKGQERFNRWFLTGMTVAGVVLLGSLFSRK

By GI50 is commonly meant the concentration at which growth is held to half of that of the control. With `Cc1ncsc1-c1ccc(CNC(=O)[C@@H]2C[C@@H](O)CN2C(=O)[C@@H](NC(=O)CCCCCCC(=O)N2CCN(CC#Cc3ccc(OCCCc4sc(N5CCCc6c5nnc(Nc5nc7ccccc7s5)c6C)nc4C(=O)O)c(F)c3)CC2)C(C)(C)C)cc1` [Example 33, 2-(3-(benzo[d]thiazol-2-ylamino)-4-methyl-6,7-dihydropyrido [2,3-c]pyridazin-8(5H)-yl)-5-(3-(2-fluoro-4-(3-(4-(8-(((S)-1-((2S,4R)-4-hydroxy-2-((4-(4-methylthiazol-5-yl)benzyl)carbamoyl)pyrrolidin-1-yl)-3,3-dimethyl-1-oxobutan-2-yl)amino)-8-oxooctanoyl)piperazin-1-yl)prop-1-yn-1-yl)phenoxy)propyl) thiazole-4-carboxylic acid], the GI50 in assay [1] stood at 33 nM. For the same compound, the DC50 at HiBiT-tagged BCL-xL was greater than 1670 nM.
The corresponding values for `Cc1ncsc1-c1ccc([C@H](C)NC(=O)C2CC(O)CN2C(=O)C(NC(=O)CCCCCCCCCCCN2CCN(CC#Cc3ccc(OCCCc4sc(N5CCCc6c5nnc(Nc5nc7ccccc7s5)c6C)nc4C(=O)O)c(F)c3)CC2)C(C)(C)C)cc1` (stereo in doubt) [Example 31, 2-[3-(1,3-benzothiazol-2-ylamino)-4-methyl-6,7-dihydro-5H-pyrido[2,3-c]pyridazin-8-yl]-5-[3-[2-fluoro-4-[3-[4-[12-[[(1S)-1-[(2S,4R)-4-hydroxy-2-[[(1S)-1-[4-(4-methylthiazol-5-yl)phenyl]ethyl]carbamoyl]pyrrolidine-1-carbonyl]-2,2-dimethyl-propyl]amino]-12-oxo-dodecyl]piperazin-1-yl]prop-1-ynyl]phenoxy]propyl] thiazole-4-carboxylic acid] are 1 nM and 0.4 nM.
For `Cc1ncsc1-c1ccc(CNC(=O)[C@@H]2C[C@@H](O)CN2C(=O)[C@@H](NC(=O)CCCCCCCCCCC(=O)N2CCN(CC#Cc3ccc(OCCCc4sc(N5CCCc6c5nnc(Nc5nc7ccccc7s5)c6C)nc4C(=O)O)c(F)c3)CC2)C(C)(C)C)cc1` [Example 48, 2-(3-(benzo[d]thiazol-2-ylamino)-4-methyl-6,7-dihydropyrido [2,3-c]pyridazin-8(5H)-yl)-5-(3-(2-fluoro-4-(3-(4-(12-(((S)-1-((2S,4R)-4-hydroxy-2-((4-(4-methylthiazol-5-yl)benzyl)carbamoyl)pyrrolidin-1-yl)-3,3-dimethyl-1-oxobutan-2-yl)amino)-12-oxododecanoyl)piperazin-1-yl)prop-1-yn-1-yl)phenoxy)propyl)thiazole-4-carboxylic acid] the same measures were 12 nM and 1 nM.
The corresponding values for `Cc1ncsc1-c1ccc([C@H](C)NC(=O)[C@@H]2C[C@@H](O)CN2C(=O)[C@@H](NC(=O)CCCCCCCCCCC(=O)N2CCN(CCOC34CC5(C)CC(C)(CC(Cn6ncc(-c7ccc(N8CCCc9c8nnc(Nc8nc%10ccccc%10s8)c9C)nc7C(=O)O)c6C)(C5)C3)C4)CC2)C(C)(C)C)cc1` [Example 47, 6-(3-(benzo[d]thiazol-2-ylamino)-4-methyl-6,7-dihydropyrido [2,3-c]pyridazin-8(5H)-yl)-3-(1-(((1r,3s,5R,7S)-3-(2-(4-(12-(((S)-1-((2S,4R)-4-hydroxy-2-(((S)-1-(4-(4-methylthiazol-5-yl)phenyl)ethyl)carbamoyl)pyrrolidin-1-yl)-3,3-dimethyl-1-oxobutan-2-yl)amino)-12-oxododecanoyl)piperazin-1-yl)ethoxy)-5,7-dimethyladamantan-1-yl)methyl)-5-methyl-1H-pyrazol-4-yl)picolinic acid] are 76 nM and 9 nM.
As to `Cc1ncsc1-c1ccc(CNC(=O)C2C[C@@H](O)CN2C(=O)C(NC(=O)CCCCCC(=O)N2CCN(CC#Cc3ccc(OCCCc4sc(N5CCCc6c5nnc(Nc5nc7ccccc7s5)c6C)nc4C(=O)O)c(F)c3)CC2)C(C)(C)C)cc1` (stereo in doubt) [Example 15, 2-[3-(1,3-benzothiazol-2-ylamino)-4-methyl-6,7-dihydro-5H-pyrido[2,3-c]pyridazin-8-yl]-5-[3-[2-fluoro-4-[3-[4-[7-[[(1S)-1-[(2S,4R)-4-hydroxy-2-[[4-(4-methylthiazol-5-yl)phenyl]methylcarbamoyl]pyrrolidine-1-carbonyl]-2,2-dimethyl-propyl]amino]-7-oxo-heptanoyl]piperazin-1-yl]prop-1-ynyl]phenoxy]propyl] thiazole-4-carboxylic acid], the GI50 in assay [1] came to 21 nM. Also, the DC50 at HiBiT-tagged BCL-xL was greater than 1670 nM.
The corresponding values for `Cc1ncsc1-c1ccc([C@H](C)NC(=O)[C@@H]2C[C@@H](O)CN2C(=O)[C@@H](NC(=O)CCCC(=O)N2CCN(CC#Cc3ccc(OCCCc4sc(N5CCCc6c5nnc(Nc5nc7ccccc7s5)c6C)nc4C(=O)O)c(F)c3)CC2)C(C)(C)C)cc1` [Example 35, 2-(3-(benzo[d]thiazol-2-ylamino)-4-methyl-6,7-dihydropyrido [2,3-c]pyridazin-8(5H)-yl)-5-(3-(2-fluoro-4-(3-(4-(5-(((S)-1-((2S,4R)-4-hydroxy-2-(((S)-1-(4-(4-methylthiazol-5-yl)phenyl)ethyl)carbamoyl)pyrrolidin-1-yl)-3,3-dimethyl-1-oxobutan-2-yl)amino)-5-oxopentanoyl)piperazin-1-yl)prop-1-yn-1-yl)phenoxy)propyl)thiazole-4-carboxylic acid] are 19 nM and greater than 1670 nM.
For `Cc1ncsc1-c1ccc([C@H](C)NC(=O)[C@@H]2C[C@@H](O)CN2C(=O)[C@@H](NC(=O)CCCCCCCCN(C)CCOC23CC4(C)CC(C)(CC(Cn5ncc(-c6ccc(N7CCCc8c7nnc(Nc7nc9ccccc9s7)c8C)nc6C(=O)O)c5C)(C4)C2)C3)C(C)(C)C)cc1` [Example 5, 6-[3-(1,3-benzothiazol-2-ylamino)-4-methyl-6,7-dihydro-5H-pyrido[2,3-c]pyridazin-8-yl]-3-[1-[[3-[2-[[9-[[(1S)-1-[(2S,4R)-4-hydroxy-2-[[(1S)-1-[4-(4-methylthiazol-5-yl)phenyl]ethyl]carbamoyl]pyrrolidine-1-carbonyl]-2,2-dimethyl-propyl]amino]-9-oxo-nonyl]-methyl-amino]ethoxy]-5,7-dimethyl-1-adamantyl]methyl]-5-methyl-pyrazol-4-yl]pyridine-2-carboxylic acid] the same measures were 23 nM and 2 nM.
For `Cc1ncsc1-c1ccc([C@H](C)NC(=O)[C@@H]2C[C@@H](O)CN2C(=O)[C@@H](NC(=O)CCCCCCCN(C)CCOC23CC4(C)CC(C)(CC(Cn5ncc(-c6ccc(N7CCCc8c7nnc(Nc7nc9ccccc9s7)c8C)nc6C(=O)O)c5C)(C4)C2)C3)C(C)(C)C)cc1` [Example 6, 6-[3-(1,3-benzothiazol-2-ylamino)-4-methyl-6,7-dihydro-5H-pyrido[2,3-c]pyridazin-8-yl]-3-[1-[[3-[2-[[8-[[(1S)-1-[(2S,4R)-4-hydroxy-2-[[(1S)-1-[4-(4-methylthiazol-5-yl)phenyl]ethyl]carbamoyl]pyrrolidine-1-carbonyl]-2,2-dimethyl-propyl]amino]-8-oxo-octyl]-methyl-amino]ethoxy]-5,7-dimethyl-1-adamantyl]methyl]-5-methyl-pyrazol-4-yl]pyridine-2-carboxylic acid] the same measures were 13 nM and 3 nM.
Turning to `Cc1ncsc1-c1ccc([C@H](C)NC(=O)[C@@H]2C[C@@H](O)CN2C(=O)[C@@H](NC(=O)CCCCCCCCCCCN2CCN(CC#Cc3ccc(OCCCc4sc(N5CCCc6c5nnc(Nc5nc7ccccc7s5)c6C)nc4C(=O)O)c(F)c3)CC2)C(C)(C)C)cc1` [Example 51, 2-(3-(benzo[d]thiazol-2-ylamino)-4-methyl-6,7-dihydropyrido [2,3-c]pyridazin-8(5H)-yl)-5-(3-(2-fluoro-4-(3-(4-(12-(((S)-1-((2S,4R)-4-hydroxy-2-(((S)-1-(4-(4-methylthiazol-5-yl)phenyl)ethyl)carbamoyl)pyrrolidin-1-yl)-3,3-dimethyl-1-oxobutan-2-yl)amino)-12-oxododecyl)piperazin-1-yl)prop-1-yn-1-yl)phenoxy)propyl)thiazole-4-carboxylic acid], the GI50 in assay [1] amounted to 1 nM. Further, on HiBiT-tagged BCL-xL, the DC50 is 0.3 nM.
For `Cc1ncsc1-c1ccc([C@H](C)NC(=O)[C@@H]2C[C@@H](O)CN2C(=O)[C@@H](NC(=O)CC23CC4CC(C2)CC(CC(=O)N2CCN(CC#Cc5ccc(OCCCc6sc(N7CCCc8c7nnc(Nc7nc9ccccc9s7)c8C)nc6C(=O)O)c(F)c5)CC2)(C4)C3)C(C)(C)C)cc1` [Example 42, 2-(3-(benzo[d]thiazol-2-ylamino)-4-methyl-6,7-dihydropyrido [2,3-c]pyridazin-8(5H)-yl)-5-(3-(2-fluoro-4-(3-(4-(2-((3S,5R)-3-(2-(((S)-1-((2S,4R)-4-hydroxy-2-(((S)-1-(4-(4-methylthiazol-5-yl)phenyl)ethyl)carbamoyl)pyrrolidin-1-yl)-3,3-dimethyl-1-oxobutan-2-yl)amino)-2-oxoethyl)adamantan-1-yl)acetyl)piperazin-1-yl)prop-1-yn-1-yl)phenoxy)propyl)thiazole-4-carboxylic acid] the same measures were 21 nM and greater than 1670 nM.
